Assay results from patent publication US20030195183A1, “Method for correcting immune system of live body” (priority 2000, published 2003).
“And” between values parts separate entries of the source, which are not always exact repeats. Equal values may be shown once. “Also recorded” adds a separate entry of the source.

Assays:
[1] = system: humoral immune response to ram erythrocytes; assay: titers of hemagglutinins after simultaneous administration of preparation and RE (inductive phase); format: in vivo, mice
[2] = system: humoral immune response to ram erythrocytes; assay: titers of hemagglutinins, preparation five days after immunization with RE (productive phase); format: in vivo, mice
[3] = anaphylactogenic activity; format: in vivo, guinea pigs
Description: Allergenic effects of the preparation were evaluated on female guinea pigs weighing 250 to 300 g supplied by RF AMS Central Brooder of Laboratory Animals. A total of 70 guinea pigs have been studied. Intraperitoneal and intradermal injections of the preparations were used.
The preparation under study was injected to three groups of guinea pigs in accordance with the following schedule: first 0.1-ml injection of various doses (1 μg, 10 μg and 100 μg) was made subcutaneously; second 0.1-ml injection of the preparation was made on the next day intramuscularly in the thigh; and the third 0.1-ml injection was made one day later. On day 21, the shocking injection of main pharmacological effect with single application was made.

[4] = clinical case, treatment of duodenal ulcer; format: in vivo, human; conditions: Patient K
Description: Apart from the studies on animals described above, clinical studies of immunocorrection activity of amino derivatives of 2,3-dihydrophthalazine-1,4-dione represented by sodium salt of 5-amino-2,3-dihydrophthalazine-1,4-dione in the treatment of various diseases on human, in particular, anti-inflammatory immunocorrecting activity in the treatment of ulcers, were carried out.
Concomitant catarrhal bulbitis was present. The patient partly lost their working capacity due to this disease.
Treatment: Periulceral injection of 100 mg of sodium salt of 5-amino-2,3-dihydrophthalazine-1,4-dione was made. One more injection of the preparation was made on the 7th day. The patient also received the preparation in Almagel suspension and, since the 7th day, in Maalox (in view of constipations). They were simultaneously treated with omeprazol in accordance with usual regimen and, since the 7th day, De-nol with trichopol.

[5] = system: macrophages, interleukins and other acute phase proteins; conditions: e.g. patients with malignant tumors; dose range of 10 to 1000 mg; cited from earlier work
phagocytic cells = assay: phagocytosis in vivo (peritoneal neutrophils and macrophages, St. aureus); design: species or system Strain C57BL6 mice
Description: Intraperitoneal injection of 3 ml of 3% peptone was made, and 2 hours later the animals were killed with chloroform. The mice were autopsied in aseptic conditions. Liquid was aspirated from abdominal cavity with a Pasteur's pipette and transferred to centrifuge test tubes; then centrifuging was carried out for 10 minutes at 1,000 rpm. […] Similar volume of Strain 1991 St. aureus was added to cells in a proportion of 1:10 proportion and incubated at 37° C. for 30 minutes. After incubation, smears were prepared on slides, fixed in methanol for 20 minutes and processed with Romanovsky-Giemsa's stain for 30 minutes. For evaluating the phagocytic activity of macrophages, the animals were tested on the third day after administration of peptone. Further testing was carried out similarly with that of neutrophils. The results were evaluated using a microscope at a magnification of 90×. Phagocytic index and phagocytic number were determined.

neutrophils = assay: neutrophil phagocytosis in vitro; format: cell-based, human; conditions: for Phagocytic Index, Study Group / Phagocytic number, Study Group: individual samples
Description: For evaluating the effect of the preparation on phagocytosis in vitro, blood sample was collected from donor's cubital vein in a test tube containing heparin at a dose of 10 units per ml of blood. 0.8 ml of 3% gelatin prepared based on Medium 199 were added to 2 ml of blood. The test tubes were incubated in a thermostat at 37° C. for 20 minutes. Then the supernatant containing cells was aspirated to a centrifuge tube. Cells were twice washed with Medium 199 with centrifuging at 1,000 rpm. 1 ml of Medium 199 was added to the sediment and neutrophils were counted in Goryaev's chamber. Then, cellular suspension containing 2·10^6 neutrophils in 1 ml was prepared based on Medium 199. Simultaneously, suspension of St. aureus in a concentration of 20·10^6/ml was prepared. After preliminary opsonization with an equal volume of pooled human plasma in a thermostat at 37° C. for 20 minutes, the Staphylococcus suspension was centrifuged and washed with Medium 199. The preparation in 200, 20 and 2 μg/ml concentrations was added to mixture of equal volumes of neutrophils and staphylococci; Medium 199 was added to control test tubes. After incubation in a thermostat at 37° C. for 30 minutes, the test tubes where centrifuged, and preparations were prepared in accordance with the procedure described above. Phagocytic index and phagocytic number for study group were compared with the same for control group.

[6] = clinical study, treatment of acute intestinal infections (AII); format: in vivo, human
Description: Efficacy of the preparation in decreasing the gravity of manifestations of various forms of AII was evaluated in accordance with the used program of study with aid of a three-point scale.
After the study was finished, general evaluation of clinical efficacy and safety of the preparation based on a 4-point scale, depending on nosologic forms, was carried out.

[7] = 0.2 μg, Strain C57BL6 mice, 7 days
[8] = 0.2 μg, Strain C57BL6 mice, 14 days
[9] = 0.2 μg, Strain C57BL6 mice, 21 days
[10] = 0.2 μg, Strain CBA mice, 7 days
[11] = 0.2 μg, Strain CBA mice, 14 days
[12] = 0.2 μg, Strain CBA mice, 21 days
[13] = 2 μg, Strain C57BL6 mice, 7 days
[14] = 2 μg, Strain C57BL6 mice, 14 days
[15] = 2 μg, Strain C57BL6 mice, 21 days
[16] = 20 μg, Strain C57BL6 mice, 7 days
[17] = 20 μg, Strain C57BL6 mice, 14 days
[18] = 20 μg, Strain C57BL6 mice, 21 days
[19] = 20 μg, Strain CBA mice, 14 days
[20] = 20 μg, Strain CBA mice, 21 days
[21] = 200 μg, Strain C57BL6 mice, 7 days
[22] = 200 μg, Strain C57BL6 mice, 14 days
[23] = 200 μg, Strain C57BL6 mice, 21 days
[24] = 200 μg, Strain CBA mice, 7 days
[25] = 200 μg, Strain CBA mice, 14 days
[26] = 200 μg, Strain CBA mice, 21 days
[27] = sensitization 10 μg, shocking injection 100 μg, 10 animals
[28] = sensitization 100 μg, shocking injection 100 μg, 10 animals
[29] = third dose group, dose cell empty
[30] = Acute gastroenteritis, 4 patients
[31] = Alimentary toxoinfection, 4 patients

Nc1cccc2c(=O)[nH][nH]c(=O)c12.[Na] [sodium salt of 5-amino-2,3-dihydrophthalazine-1,4-dione]
Titers of hemagglutinins [1, 7]: 59 ± 58
Titers of hemagglutinins [1, 8]: 50 ± 48
Titers of hemagglutinins [1, 9]: 266 ± 200
Titers of hemagglutinins [1, 10]: 112 ± 106
Titers of hemagglutinins [1, 11]: 168 ± 109
Titers of hemagglutinins [1, 12]: 15 ± 13
Titers of hemagglutinins [1, 13]: 154 ± 57
Titers of hemagglutinins [1, 14]: 256 ± 0
Titers of hemagglutinins [1, 15]: 24 ± 20
Titers of hemagglutinins ([1]; 2 μg, Strain CBA mice, 7 days): 28 ± 26
Titers of hemagglutinins ([1]; 2 μg, Strain CBA mice, 14 days): 154 ± 97
Titers of hemagglutinins ([1]; 2 μg, Strain CBA mice, 21 days): 10 ± 8
Titers of hemagglutinins [1, 16]: 91 ± 64
Titers of hemagglutinins [1, 17]: 512 ± 0
Titers of hemagglutinins [1, 18]: 560 ± 160
Titers of hemagglutinins ([1]; 20 μg, Strain CBA mice, 7 days): 96 ± 37
Titers of hemagglutinins [1, 19]: 256 ± 0
Titers of hemagglutinins [1, 20]: 83 ± 70
Titers of hemagglutinins [1, 21]: 512 ± 0
Titers of hemagglutinins [1, 22]: 44 ± 42
Titers of hemagglutinins [1, 23]: 160 ± 138
Titers of hemagglutinins [1, 24]: 35 ± 33
Titers of hemagglutinins [1, 25]: 75 ± 59
Titers of hemagglutinins [1, 26]: 46 ± 32
titers of hemagglutinins (trend) ([1]; Strain C57BL6 animals of low reaction, 21st day, 0.2 or 20 μg per mouse): tendency to increase
Titers of hemagglutinins [2, 7]: 0
Titers of hemagglutinins [2, 8]: 2 ± 0
Titers of hemagglutinins [2, 9]: 35 ± 10
Titers of hemagglutinins [2, 10]: 0
Titers of hemagglutinins [2, 11]: 9 ± 7
Titers of hemagglutinins [2, 12]: 0
Titers of hemagglutinins [2, 13]: 13 ± 11
Titers of hemagglutinins [2, 14]: 54 ± 50
Titers of hemagglutinins [2, 15]: 226 ± 201
Titers of hemagglutinins ([2]; 2 μg, Strain CBA mice, 7 days): 10 ± 8
Titers of hemagglutinins ([2]; 2 μg, Strain CBA mice, 14 days): 173 ± 110
Titers of hemagglutinins ([2]; 2 μg, Strain CBA mice, 21 days): 22 ± 10
Titers of hemagglutinins [2, 16]: 26 ± 19
Titers of hemagglutinins [2, 17]: 256 ± 0
Titers of hemagglutinins [2, 18]: 304 ± 105
Titers of hemagglutinins ([2]; 20 μg, Strain CBA mice, 7 days): 0
Titers of hemagglutinins [2, 19]: 236 ± 0
Titers of hemagglutinins [2, 20]: 23 ± 10
Titers of hemagglutinins [2, 21]: 0
Titers of hemagglutinins [2, 22]: 96 ± 42
Titers of hemagglutinins [2, 23]: 120 ± 95
Titers of hemagglutinins [2, 24]: 28 ± 13
Titers of hemagglutinins [2, 25]: 158 ± 120
Titers of hemagglutinins [2, 26]: 47 ± 30
effect on productive phase of immune response ([2]; all doses, Strain CBA mice of high reaction): suppressive effect
level (titers) of hemagglutinins ([2]; low reaction Strain C57BL6 mice, 21st day): tendency to increase; also recorded: significant increase
production of antibodies ([2]; wide range of doses, Strain CBA mice, 7th and 14th days after immunization): inhibition
expression of anaphylactic activity ([3]; demonstrated only for high doses): very weak
Number of animals with expression of anaphylactic shock − ([3]; sensitization 1.0 μg, shocking injection 100 μg, 10 animals): 10
Weigl's index ([3]; sensitization 10 μg, shocking injection 100 μg): 0.2
Number of animals with expression of anaphylactic shock + [3, 27]: 2
Number of animals with expression of anaphylactic shock − [3, 27]: 7
Weigl's index ([3]; sensitization 100 μg, shocking injection 100 μg): 0.3
Number of animals with expression of anaphylactic shock + [3, 28]: 1
Number of animals with expression of anaphylactic shock ++ [3, 28]: 1
Number of animals with expression of anaphylactic shock − [3, 28]: 5
pain ([4]; 2nd day of treatment, with omeprazol and antacids): Significant weakening
pain ([4]; 7th day): completely disappeared
decrease in ulcer dimensions ([4]; by the 7th day): ⅓
decrease in dimensions of ulcerous defect ([4]; by the 15th day of treatment): 2/3
scarring of ulcer ([4]; by the 21st day, total of 1,000 mg): completely scarred

Nn1[n-]c(=O)c2ccccc2c1=O.O.O.[Na+] [sodium salt of 2-amino-1,2,3,4-tetrahydrophthalazine-1,4-dione, dihydrate]
effect in patients with weak cellular immunity reactions [5]: activation of macrophages, interleukins and other acute phase proteins

Nc1cccc2c(=O)[nH][nH]c(=O)c12.[K] [potassium salt of 5-amino-2,3-dihydrophthalazine-1,4-dione]
stimulating effect on phagocytic cells / phagocytic activity in vivo (phagocytic cells; dose 200 μg): no stimulating effect
ability of phagocytic cells to intake microbial cells (phagocytic cells; doses of 2 ug and 20 ug): statistically significant increase
phagocytic activity of macrophages in mice (phagocytic cells; doses ranging from 200 to 2 μg): stimulating effects
Phagocytic Index, Study Group, Mean (neutrophils; dose 20 μg): 7.8 ± 0.04
Phagocytic number, Study Group, Mean (neutrophils; dose 20 μg): 89 ± 1.25
Phagocytic Index, Study Group (neutrophils; dose 20 μg): 3.9 and 2.8 and 4.6 and 6.8 and 13.2 and 9.1 and 16.3 and 5.2
Phagocytic number, Study Group (neutrophils; dose 20 μg): 80 and 96 (2×) and 88 and 94 and 84 (2×) and 86
Phagocytic Index, Study Group, Mean (neutrophils; dose 200 μg): 6.0 ± 0.04
Phagocytic number, Study Group, Mean (neutrophils; dose 200 μg): 77 ± 0.26
Phagocytic Index, Study Group (neutrophils; dose 200 μg): 5.6 and 4.7 and 9.1 and 6.4 and 7.4
Phagocytic number, Study Group (neutrophils; dose 200 μg): 78 and 85 and 84 and 71 and 67
ability of neutrophils population to intake microbial cells (neutrophils; doses of 20 and 2 μg): statistically significant increase
effect on digestive activity of neutrophils (neutrophils; doses of 20 and 2 μg): practically no effect
Phagocytic Index, Study Group, Mean (neutrophils; [29]): 6.0 ± 0.16
Phagocytic number, Study Group, Mean (neutrophils; [29]): 86 ± 0.32
Phagocytic Index, Study Group (neutrophils; [29]): 6.4 (2×) and 4.5 and 7.4 and 5.6
Phagocytic number, Study Group (neutrophils; [29]): 88 and 92 (2×) and 78 and 84
patients with "excellent" or "good" effect ([6]; 20 patients with various forms of AII): 90 % of patients
Efficacy of the preparation: Excellent (number of patients) ([6]; Acute dysentery, 9 patients): 1
Efficacy of the preparation: Good (number of patients) ([6]; Acute dysentery, 9 patients): 7
Efficacy of the preparation: Satisfactory (number of patients) ([6]; Acute dysentery, 9 patients): 1
Efficacy of the preparation: Excellent (number of patients) [6, 30]: 2
Efficacy of the preparation: Good (number of patients) [6, 30]: 1
Efficacy of the preparation: Satisfactory (number of patients) [6, 30]: 1
Efficacy of the preparation: Excellent (number of patients) [6, 31]: 1
Efficacy of the preparation: Good (number of patients) [6, 31]: 3
Efficacy of the preparation: Excellent (number of patients) ([6]; Salmonellosis, 3 patients): 1
Efficacy of the preparation: Good (number of patients) ([6]; Salmonellosis, 3 patients): 2
Efficacy of the preparation: Excellent (number of patients) ([6]; Total, 20 patients): 5
Efficacy of the preparation: Good (number of patients) ([6]; Total, 20 patients): 13
Efficacy of the preparation: Satisfactory (number of patients) ([6]; Total, 20 patients): 2
patients in whom the intoxication syndrome resolved within 1 to 3 days ("complete decrease") ([6]; of 20 patients): 19 patients
patients with "insignificant decrease" in the first days and "complete decrease" by the 5th day of treatment ([6]; of 20 patients): one
patients with "excellent" or "good" effect ([6]; of 20 patients with various forms of AII): 18 patients
